In US11903386B2, “Strigolactone analogs and their usage in plant control” (King Abdullah University of Science and Technology, priority 2016, dated 2024):
“Also recorded” adds a separate entry of the source. One block for each compound: values may come before it.

Columns and labels:
[1] = Chemical stability of MPs in aqueous solution, monitored by HPLC; assay type: physicochemical; details: aqueous solution pH 6.8, 21° C., monitored at 24 h intervals up to 3 weeks
Method: Aqueous solutions of MPs (50 μg ml-1; pH 6.8) were incubated at 21° C. in amber HPLC vials. For sample preparation, 50 μl of an acetone solution (1 mg ml-1) was diluted to the final concentration with methanol (425 μl), water (500 μl) and 25 μl of 1-Indanol (1.0 mg ml-1 solution in acetone) as internal standard. […] The column was operated at 35° C. with a flow rate of 0.25 ml per min. Compounds eluted from the column were detected with a Diode array detector. Relative quantity of remaining (non-degraded) product was determined by comparison to the internal standard.

[2] = tested on: S. hermonthica; details: in vivo; cited from earlier work
[3] = tested on: Arabidopsis seedlings; assay: Arabidopsis hypocotyl elongation assay; assay type: in vivo; details: 1.0 μM
Method: Sterilized Arabidopsis seeds were sown on half strength MS (with 0.5% sucrose+1% agar, 0.5 g L-1 MES, pH 5.7) plates supplemented with MPs or GR24 (at 1.0 μM). Plates were stored at 4° C. in darkness for 3 days. To initiate germination, plates were exposed to continuous white light for 24 h then transferred to continuous monochromatic red light (160 Lux, 22° C.) conditions for another 4 days. For hypocotyl length measurement, at least 30 seedlings were measured using the publically available ImageJ software (http://rsbweb.nih.gov/ij/) after taking digital photographs. Monochromatic red light source was applied as described previously (Wu and Yang, 2010). Light flow rates were measured using a Li250 quantum photometer (Li-Cor, Lincoln, NE, USA).

[4] = tested on: Arabidopsis seedlings; assay: Arabidopsis lateral root density and primary root length; assay type: in vivo; details: 1.0 μM, 8 days old seedlings
Method: Sterilized Arabidopsis seeds were sown on half strength MS (with 0.5% sucrose+1% agar, 0.5 g L^−1 MES, pH 5.7) plates supplemented with GR24 or MPs (at 1.0 μM). Plates were stored at 4° C. in darkness for 3 days and then vertically grown at 22° C. in Percival incubator under long day condition (16 h at 22° C./8 h at 16° C. day/night, 60% relative humidity, 4000-5000 LUX white light) for 8 days. For determining the effect on lateral root density and primary root length, at least 30 seedlings were measured using publically available ImageJ software (http://rsbweb.nih.gov/ij/) after scanning roots.

[5] = tested on: P. ramosa seeds; assay: P. ramosa seed germination bioassay; assay type: in vivo; details: 1.0 μM
Method: (§1) Parasitic weed seeds (S. hermonthica and P. ramosa) germination activity was recorded as described previously (Jamil et al., 2012). Six pre-conditioned seed discs were placed in a 90 mm petri-dish containing a filter paper ring wetted with 0.9 ml sterile MilliQ water. […] GR24 solutions with equal concentrations and sterile MilliQ water were included as a positive and negative control, respectively. After application, seeds were incubated at 30° C./25° C. in the dark for two days. Germination (seeds with radical emerging through seed coat) was scored under a binocular microscope, and germination rate (%) was calculated.

[6] = tested on: S. hermonthica seeds; assay: Striga hermonthica seed germination bioassay; assay type: in vivo; details: comparison between compounds
Method: as §1, with “calculated. Statistical analyses were carried out using statistical software package R (version 3.2.2). Dose-response curves and Half Maximum Effective Concentrations (EC50) were calculated to determine optimum amount of MPs. Synthetic strigolactone analog GR24 was used as reference to estimate efficacy of selected compounds. EC50 and estimated response were calculated using drc package (https://cran.r390 project.org/web/packages/drc/) with a Four Parameter Logistic Curve (Dose Response Curve) (Ritz and Streibig, 2005).” for “calculated.”

[7] = tested on: rice seedlings (Shiokari, d3, d10); assay: Growth and fresh biomass of hydroponically grown rice seedlings; assay type: in vivo; details: 2.5 μM, twice a week for three weeks
Method: Rice seeds (WT, d3, d10) were surface-sterilized by washing with 70% ethanol for 1 min and then with 2.5% sodium hypochlorite for 15 min. Seeds were then rinsed thoroughly with sterile MilliQ water and incubated in water for 2 days at 30° C. in the dark. Pre-germinated seeds were transferred to filter papers containing ½ strength MS medium in 90 mm petri dishes and incubated at 30° C. under fluorescent white light (130-180 μM m^−2 s^−1) for one week. Seven day-old seedlings were transferred to 50 ml falcon tubes (one seedling per tube) containing modified half-strength Hoagland nutrient solution and grown in greenhouse. Plants were treated with MPs at 2.5 μM-2.5×10-7 μM, using GR24 as positive control. The compounds were applied six times, twice a week. Number of tillers per plant, plant height and fresh biomass were measured at final harvest.

SMILES: CC1=CC(O/C=C(C)\C=C\C2=C(C)CCCC2(C)C)OC1=O (centres unmarked) [Carlactone]
- Activity in S. hermonthica seed germination [2]: considerable activity

SMILES: COC(=O)/C(=C/OC1C=C(C)C(=O)O1)c1cccc(Cl)c1 (centres unmarked) [MP8]
- Reduction of number of lateral roots / lateral root density [4]: slightly more active than GR24
- P. ramosa seed germination activity [5]: much higher activity
- Stability in comparison to GR24 [1]: very similar to that of GR24

SMILES: COC(=O)/C(=C/OC1C=C(C)C(=O)O1)c1ccccc1Cl (centres unmarked) [MP9]
- Relative activity in inducing S. hermonthica seed germination [6]: followed by MP9
- Stability in comparison to GR24 [1]: very similar to that of GR24
- Growth, senescence symptoms and biomass of rice seedlings [7]: stunted the growth and caused senescence symptoms

SMILES: CC1=CC(O/C=C2/C(=O)OCc3ccccc32)OC1=O (centres unmarked) [MP5]
- Stability in comparison to GR24 [1]: more stable than GR24; also recorded: the most stable compound

The next lines start with results.

- Stability in comparison to GR24 [1]: very similar to that of GR24
SMILES: COC(=O)/C(=C/OC1C=C(C)C(=O)O1)c1ccc(OC)cc1 (centres unmarked) [MP14]

- Stability in comparison to GR24 [1]: not detectable even after only 24 h
SMILES: CC1=CC(O/C=C(/C=O)c2ccc([N+](=O)[O-])cc2)OC1=O (racemic) [MP12, (E)-3-(4-methyl-5-oxo-2,5-dihydrofuran-2-yloxy)-2-(4-nitrophenyl)acrylaldehyde]
- Inhibition of hypocotyl growth [3]: Apart from MP12 and MP15, all MPs showed significant inhibition
